# In PubChem BioAssay (NCI):
#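 Results reflect a 48-hour exposure of cells in 96-well plates to compound at five concentrations. TGI: concentration producing complete growth inhibition.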
# Tests used:
# Assay in all cases: inhibition of tumour cell growth, NCI panel, 48 h
# 786-0 renal = test system: 786-0 renal
# A498 renal = test system: A498 renal
# A549 NSCLC = test system: A549 NSCLC
# ACHN renal = test system: ACHN renal
# BT-549 breast = test system: BT-549 breast
# CAKI-1 renal = test system: CAKI-1 renal
# CCRF-CEM leukemia = test system: CCRF-CEM leukemia
# COLO 205 colon = test system: COLO 205 colon
# DU-145 prostate = test system: DU-145 prostate
# EKVX NSCLC = test system: EKVX NSCLC
# HCC-2998 colon = test system: HCC-2998 colon
# HCT-116 colon = test system: HCT-116 colon
# HCT-15 colon = test system: HCT-15 colon
# HL-60(TB) leukemia = test system: HL-60(TB) leukemia
# HOP-62 NSCLC = test system: HOP-62 NSCLC
# HOP-92 NSCLC = test system: HOP-92 NSCLC
# HS 578T breast = test system: HS 578T breast
# HT29 colon = test system: HT29 colon
# IGROV1 ovarian = test system: IGROV1 ovarian
# K-562 leukemia = test system: K-562 leukemia
# KM12 colon = test system: KM12 colon
# LOX IMVI melanoma = test system: LOX IMVI melanoma
# M14 melanoma = test system: M14 melanoma
# MALME-3M melanoma = test system: MALME-3M melanoma
# MCF7 breast = test system: MCF7 breast
# MDA-MB-231 breast = test system: MDA-MB-231 breast
# MDA-MB-435 = test system: MDA-MB-435
# MOLT-4 leukemia = test system: MOLT-4 leukemia
# NCI-H226 lung = test system: NCI-H226 lung
# NCI-H23 lung = test system: NCI-H23 lung
# NCI-H460 lung = test system: NCI-H460 lung
# NCI-H522 lung = test system: NCI-H522 lung
# NCI/ADR-RES ovarian = test system: NCI/ADR-RES ovarian
# OVCAR-3 ovarian = test system: OVCAR-3 ovarian
# OVCAR-4 ovarian = test system: OVCAR-4 ovarian
# OVCAR-5 ovarian = test system: OVCAR-5 ovarian
# OVCAR-8 ovarian = test system: OVCAR-8 ovarian
# PC-3 prostate = test system: PC-3 prostate
# RPMI-8226 leukemia = test system: RPMI-8226 leukemia
# RXF 393 renal = test system: RXF 393 renal
# SF-268 CNS = test system: SF-268 CNS
# SF-295 CNS = test system: SF-295 CNS
# SF-539 CNS = test system: SF-539 CNS
# SK-MEL-2 melanoma = test system: SK-MEL-2 melanoma
# SK-MEL-28 melanoma = test system: SK-MEL-28 melanoma
# SK-MEL-5 melanoma = test system: SK-MEL-5 melanoma
# SK-OV-3 ovarian = test system: SK-OV-3 ovarian
# SN12C renal = test system: SN12C renal
# SNB-19 CNS = test system: SNB-19 CNS
# SNB-75 CNS = test system: SNB-75 CNS
# SR leukemia = test system: SR leukemia
# SW-620 colon = test system: SW-620 colon
# T-47D breast = test system: T-47D breast
# TK-10 renal = test system: TK-10 renal
# U251 CNS = test system: U251 CNS
# UACC-257 melanoma = test system: UACC-257 melanoma
# UACC-62 melanoma = test system: UACC-62 melanoma
# UO-31 renal = test system: UO-31 renal
# MDA-N = test system: MDA-N
smiles,measurement,setting,value
COC(=O)c1ccc(C)cc1CC1Cc2ccc(C)cc2C1=O (centres undefined),TGI,786-0 renal,48.5 µM
same,TGI,A498 renal,9.19 µM
same,TGI,A549 NSCLC,93.5 µM
same,TGI,ACHN renal,80.8 µM
same,TGI,BT-549 breast,52.6 µM
same,TGI,CAKI-1 renal,> 100 µM
same,TGI,CCRF-CEM leukemia,74.5 µM
same,TGI,COLO 205 colon,26.1 µM
same,TGI,DU-145 prostate,> 100 µM
same,TGI,EKVX NSCLC,36.6 µM
same,TGI,HCC-2998 colon,32.3 µM
same,TGI,HCT-116 colon,19 µM
same,TGI,HCT-15 colon,13.1 µM
same,TGI,HL-60(TB) leukemia,10.7 µM
same,TGI,HOP-62 NSCLC,> 100 µM
same,TGI,HOP-92 NSCLC,61.4 µM
same,TGI,HS 578T breast,48.9 µM
same,TGI,HT29 colon,11.1 µM
same,TGI,IGROV1 ovarian,> 100 µM
same,TGI,K-562 leukemia,10.5 µM
same,TGI,KM12 colon,22.1 µM
same,TGI,LOX IMVI melanoma,14.8 µM
same,TGI,M14 melanoma,32.2 µM
same,TGI,MALME-3M melanoma,24.3 µM
same,TGI,MCF7 breast,19.9 µM
same,TGI,MDA-MB-231 breast,77.4 µM
same,TGI,MDA-MB-435,4.03 µM
same,TGI,MOLT-4 leukemia,26.4 µM
same,TGI,NCI-H226 lung,27.2 µM
same,TGI,NCI-H23 lung,74.7 µM
same,TGI,NCI-H460 lung,31.3 µM
same,TGI,NCI-H522 lung,5.48 µM
same,TGI,NCI/ADR-RES ovarian,18.3 µM
same,TGI,OVCAR-3 ovarian,25.3 µM
same,TGI,OVCAR-4 ovarian,89.5 µM
same,TGI,OVCAR-5 ovarian,92.4 µM
same,TGI,OVCAR-8 ovarian,57.5 µM
same,TGI,PC-3 prostate,71.8 µM
same,TGI,RPMI-8226 leukemia,36.5 µM
same,TGI,RXF 393 renal,28.8 µM
same,TGI,SF-268 CNS,61.7 µM
same,TGI,SF-295 CNS,96.7 µM
same,TGI,SF-539 CNS,19.5 µM
same,TGI,SK-MEL-2 melanoma,30.6 µM
same,TGI,SK-MEL-28 melanoma,76.7 µM
same,TGI,SK-MEL-5 melanoma,19.6 µM
same,TGI,SK-OV-3 ovarian,59.5 µM
same,TGI,SN12C renal,32.7 µM
same,TGI,SNB-19 CNS,> 100 µM
same,TGI,SNB-75 CNS,43.8 µM
same,TGI,SR leukemia,8.68 µM
same,TGI,SW-620 colon,> 100 µM
same,TGI,T-47D breast,63 µM
same,TGI,TK-10 renal,46.8 µM
same,TGI,U251 CNS,16.3 µM
same,TGI,UACC-257 melanoma,53.6 µM
same,TGI,UACC-62 melanoma,51.4 µM
same,TGI,UO-31 renal,64 µM
CCOC(=O)Nc1ccc2c(c1)c(CCCCCCc1nc3ccccc3c3ccc(NC(=O)OCC)cc13)nc1ccccc12,TGI,786-0 renal,42.4 µM
same,TGI,A498 renal,67.3 µM
same,TGI,A549 NSCLC,> 100 µM
same,TGI,ACHN renal,> 100 µM
same,TGI,CAKI-1 renal,> 100 µM
same,TGI,CCRF-CEM leukemia,> 100 µM
same,TGI,COLO 205 colon,> 100 µM
same,TGI,DU-145 prostate,> 100 µM
same,TGI,EKVX NSCLC,> 100 µM
same,TGI,HCC-2998 colon,> 100 µM
same,TGI,HCT-116 colon,> 100 µM
same,TGI,HCT-15 colon,> 100 µM
same,TGI,HL-60(TB) leukemia,> 100 µM
same,TGI,HOP-62 NSCLC,64.2 µM
same,TGI,HOP-92 NSCLC,63 µM
same,TGI,HS 578T breast,> 100 µM
same,TGI,HT29 colon,> 100 µM
same,TGI,IGROV1 ovarian,> 100 µM
same,TGI,K-562 leukemia,> 100 µM
same,TGI,KM12 colon,> 100 µM
same,TGI,LOX IMVI melanoma,42.5 µM
same,TGI,M14 melanoma,88.8 µM
same,TGI,MCF7 breast,> 100 µM
same,TGI,MDA-MB-231 breast,67.8 µM
same,TGI,MDA-MB-435,> 100 µM
same,TGI,MDA-N,> 100 µM
same,TGI,MOLT-4 leukemia,> 100 µM
same,TGI,NCI-H226 lung,81 µM
same,TGI,NCI-H23 lung,> 100 µM
same,TGI,NCI-H460 lung,> 100 µM
same,TGI,NCI-H522 lung,60.5 µM
same,TGI,NCI/ADR-RES ovarian,> 100 µM
same,TGI,OVCAR-3 ovarian,58.7 µM
same,TGI,OVCAR-4 ovarian,74.2 µM
same,TGI,OVCAR-5 ovarian,> 100 µM
same,TGI,OVCAR-8 ovarian,61.3 µM
same,TGI,PC-3 prostate,> 100 µM
same,TGI,RPMI-8226 leukemia,> 100 µM
same,TGI,RXF 393 renal,> 100 µM
same,TGI,SF-268 CNS,74.9 µM
same,TGI,SF-295 CNS,> 100 µM
same,TGI,SF-539 CNS,25 µM
same,TGI,SK-MEL-2 melanoma,71.2 µM
same,TGI,SK-MEL-28 melanoma,> 100 µM
same,TGI,SK-MEL-5 melanoma,> 100 µM
same,TGI,SK-OV-3 ovarian,85.1 µM
same,TGI,SN12C renal,> 100 µM
same,TGI,SNB-19 CNS,> 100 µM
same,TGI,SNB-75 CNS,45.3 µM
same,TGI,SR leukemia,> 100 µM
same,TGI,SW-620 colon,> 100 µM
same,TGI,T-47D breast,> 100 µM
same,TGI,TK-10 renal,84.8 µM
same,TGI,UACC-257 melanoma,> 100 µM
same,TGI,UACC-62 melanoma,> 100 µM
same,TGI,UO-31 renal,> 100 µM
